The source of these data is patent US20120071475A1, “UREA DERIVATIVES HAVING PI3K-INHIBITING ACTIVITY” (SHIONOGI & CO., LTD., priority 2009, published 2012).

Read-outs that look alike come from different tables or passages of the source.

One series has as its target PI3Kγ (Homo sapiens, UniProt P48736). In words: PI3Kγ inhibitory activity (PI3-kinase HTRF assay, inhibition ratio). It is filed as biochemical. Particulars: compound at 10 μmol/L; for inhibition at 10 µM: 0.5 h, read-out: PI3Kg Inhibition Ratio % (10 μM). In short, it runs like this: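 Compound at 10 μmol/L preincubated 10 min with PI3Kγ and PIP2 substrate, then reacted with ATP for 30 minutes at room temperature; the compound, substrate and ATP figures as printed (40 μmol/L each) are solution concentrations. HTRF 665/620 nm ratio read after 18 hours. Inhibition ratio calculated against no-compound (100%) and no-enzyme (0%) controls.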

The next series deals with AKT phosphorylation. The series is described as follows: AKT phosphorylation inhibitory activity in MCP-1 stimulated THP-1 cells (sandwich ELISA). Type of series: cell-based, Human. The conditions noted are these: compound at 1 μmol/L, MCP-1 stimulation; for inhibition at 1 µM: Homo sapiens, read-out: AKT phosphorylation inhibition ratio. In short, it runs like this:
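THP-1 cells (6.7×10^6/mL in HBSS) were preincubated with compound at 1 μmol/L for 5 min at 37 °C, then stimulated for 60 s with HBSS containing 1.2 μg/mL MCP-1 and lysed. Phospho-Akt Ser473/AKT1 sandwich ELISA was read at A450. % inhibition: no compound = 100% activity, no MCP-1 = 0%.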
(In general: In an ELISA, binding on a coated surface is turned into a signal by an enzyme label.)

The next series concerns the target PI3Kβ (Homo sapiens, UniProt P42338). The series is described as follows: PI3Kβ inhibitory activity (Ki value). Type of series: biochemical. The protocol: According to Example 2 above, after 80 μg/mL PI-3 kinase γ of the enzyme solution (80 μg/mL PI-3 kinase γ, 10 mmol/L MgCl2, 5 mmol/L DTT) was changed to 60 μg/mL PI-3 kinase β, a method similar to the method for measuring PI3Kγ inhibitory activity was used to calculate an inhibition ratio, which was defined as the PI3Kβ inhibitory activity.
According to Example 4 above, a Km value for PI3Kβ was determined to calculate a Ki value.

For series [1], the system named is CYP1A2, CYP2C9, CYP2C19, CYP2D6 and CYP3A4 (one value for the five species). In words: CYP inhibition test, five CYP species together (5CYPs_IC50; pooled human liver microsome). Type of series: in vitro ADME. Particulars: human, microsomes. An outline of the steps:
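Pooled human liver microsomes (0.2 mg/mL) in 50 mM Hepes were incubated with a substrate cocktail of 0.5 μM ethoxyresorufin, 100 μM tolbutamide, 50 μM S-mephenytoin, 5 μM dextromethorphan and 1 μM terfenadine plus NADPH for 15 min at 37 °C. Compound tested at 1–20 μM (4 points). Metabolites read by fluorescence or LC/MS/MS, and IC50 derived by logistic fit against a DMSO control.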
Background: Microsomes from liver hold many membrane-bound enzymes, among them those of drug oxidation.

The mark [2] stands for this setting: class symbols, read-out: PI3K β Ki.

Chain of PI3Kβ (P42338 whole entry, species assumed): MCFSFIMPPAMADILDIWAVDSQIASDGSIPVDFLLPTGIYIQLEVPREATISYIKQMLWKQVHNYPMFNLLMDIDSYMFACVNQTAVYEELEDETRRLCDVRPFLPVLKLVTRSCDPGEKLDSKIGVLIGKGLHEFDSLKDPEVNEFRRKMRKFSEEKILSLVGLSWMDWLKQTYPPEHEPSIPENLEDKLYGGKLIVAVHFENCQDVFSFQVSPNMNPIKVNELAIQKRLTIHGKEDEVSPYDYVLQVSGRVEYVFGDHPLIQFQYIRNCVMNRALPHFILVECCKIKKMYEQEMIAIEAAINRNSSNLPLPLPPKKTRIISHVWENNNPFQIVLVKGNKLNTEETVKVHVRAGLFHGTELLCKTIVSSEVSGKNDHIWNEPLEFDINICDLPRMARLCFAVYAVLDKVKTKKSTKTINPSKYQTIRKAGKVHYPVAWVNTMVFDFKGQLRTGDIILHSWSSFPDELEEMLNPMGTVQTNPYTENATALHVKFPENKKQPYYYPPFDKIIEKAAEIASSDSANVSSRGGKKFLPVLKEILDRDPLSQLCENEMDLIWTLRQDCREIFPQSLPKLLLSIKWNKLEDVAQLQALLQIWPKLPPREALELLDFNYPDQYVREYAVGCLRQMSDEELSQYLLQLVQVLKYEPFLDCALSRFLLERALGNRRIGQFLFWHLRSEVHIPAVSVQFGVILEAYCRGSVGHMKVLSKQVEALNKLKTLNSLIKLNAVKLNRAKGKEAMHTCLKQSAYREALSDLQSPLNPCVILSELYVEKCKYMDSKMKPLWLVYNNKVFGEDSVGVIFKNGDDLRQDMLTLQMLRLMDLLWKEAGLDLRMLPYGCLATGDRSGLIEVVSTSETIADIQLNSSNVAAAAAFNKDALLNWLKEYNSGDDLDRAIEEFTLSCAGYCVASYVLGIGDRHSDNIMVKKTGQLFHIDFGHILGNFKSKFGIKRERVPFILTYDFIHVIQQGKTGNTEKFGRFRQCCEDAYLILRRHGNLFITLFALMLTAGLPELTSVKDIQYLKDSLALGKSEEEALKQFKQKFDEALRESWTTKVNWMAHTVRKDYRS
Chain of PI3Kβ (P27986 whole entry partner, species assumed): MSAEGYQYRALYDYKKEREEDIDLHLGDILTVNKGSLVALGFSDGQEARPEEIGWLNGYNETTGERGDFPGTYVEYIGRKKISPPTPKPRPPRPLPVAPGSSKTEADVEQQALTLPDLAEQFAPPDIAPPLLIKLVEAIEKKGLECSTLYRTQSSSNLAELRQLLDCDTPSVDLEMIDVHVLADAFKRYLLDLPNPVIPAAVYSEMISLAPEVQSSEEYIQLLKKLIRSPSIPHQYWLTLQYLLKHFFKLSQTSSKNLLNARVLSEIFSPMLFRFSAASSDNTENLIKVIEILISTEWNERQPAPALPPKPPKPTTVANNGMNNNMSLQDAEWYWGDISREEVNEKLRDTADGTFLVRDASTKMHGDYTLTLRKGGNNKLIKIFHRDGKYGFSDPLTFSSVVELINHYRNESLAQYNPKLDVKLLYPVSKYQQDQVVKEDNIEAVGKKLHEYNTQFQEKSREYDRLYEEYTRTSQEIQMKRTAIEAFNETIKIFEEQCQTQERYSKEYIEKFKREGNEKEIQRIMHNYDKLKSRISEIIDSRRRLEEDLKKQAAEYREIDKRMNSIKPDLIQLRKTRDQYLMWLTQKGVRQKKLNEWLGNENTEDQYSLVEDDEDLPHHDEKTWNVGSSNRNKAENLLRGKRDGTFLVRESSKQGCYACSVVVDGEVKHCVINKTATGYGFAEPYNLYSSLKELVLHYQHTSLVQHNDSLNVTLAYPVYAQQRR
Chain of PI3Kγ (P48736 whole entry, species assumed): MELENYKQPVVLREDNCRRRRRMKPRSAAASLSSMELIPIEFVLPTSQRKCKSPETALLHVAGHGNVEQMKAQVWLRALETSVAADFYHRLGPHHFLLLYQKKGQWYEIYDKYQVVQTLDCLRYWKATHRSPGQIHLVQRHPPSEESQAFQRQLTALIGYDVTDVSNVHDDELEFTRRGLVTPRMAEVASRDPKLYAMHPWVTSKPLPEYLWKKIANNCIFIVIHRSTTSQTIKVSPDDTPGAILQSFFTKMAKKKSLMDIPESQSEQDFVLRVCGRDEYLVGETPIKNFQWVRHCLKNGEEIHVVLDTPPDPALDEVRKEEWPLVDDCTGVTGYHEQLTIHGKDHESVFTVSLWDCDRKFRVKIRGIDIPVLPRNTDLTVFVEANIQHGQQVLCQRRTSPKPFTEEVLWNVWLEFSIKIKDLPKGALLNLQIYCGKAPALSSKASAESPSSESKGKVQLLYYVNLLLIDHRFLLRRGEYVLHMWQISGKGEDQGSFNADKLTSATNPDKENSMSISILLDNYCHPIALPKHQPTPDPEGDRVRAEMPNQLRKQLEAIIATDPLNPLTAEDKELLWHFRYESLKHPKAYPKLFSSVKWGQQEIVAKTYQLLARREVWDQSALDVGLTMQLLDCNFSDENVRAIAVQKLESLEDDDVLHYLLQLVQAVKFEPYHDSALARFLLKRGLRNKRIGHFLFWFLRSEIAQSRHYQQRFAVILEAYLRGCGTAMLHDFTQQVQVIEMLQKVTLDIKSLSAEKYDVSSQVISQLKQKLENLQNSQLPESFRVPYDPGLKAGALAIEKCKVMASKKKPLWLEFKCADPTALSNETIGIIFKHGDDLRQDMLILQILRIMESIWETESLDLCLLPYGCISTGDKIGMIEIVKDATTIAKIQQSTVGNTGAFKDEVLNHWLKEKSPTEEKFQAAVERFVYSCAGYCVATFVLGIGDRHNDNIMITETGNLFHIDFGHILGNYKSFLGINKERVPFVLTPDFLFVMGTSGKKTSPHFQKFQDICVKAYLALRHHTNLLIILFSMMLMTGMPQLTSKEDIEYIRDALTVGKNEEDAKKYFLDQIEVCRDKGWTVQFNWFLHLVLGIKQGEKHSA

The term Ki denotes a measure of affinity in units of concentration, obtained from inhibition or displacement. `COc1cc(N2CCc3nc(NC(=O)Nc4ccccc4C(=O)NC(C)C)sc3C2)nc(OC)n1` [Compound I-12]: the inhibition at 10 µM on PI3Kγ is 94%. Besides, in the series with AKT phosphorylation, the inhibition at 1 µM was no less than 95%. The Ki on PI3Kβ (setting [2]) was no more than 3 µM; at PI3Kβ (read-out: PI3Kβ Ki value) it was 0.34 µM.
The term IC50 denotes the concentration at which inhibition is half-maximal. Low readings indicate higher potency, high ones lower potency. On to `COc1cc(N2CCc3nc(NC(=O)Nc4ccccc4C(=O)NCCF)sc3C2)nc(OC)n1` [Compound I-88], for which the inhibition at 10 µM at PI3Kγ is no less than 95%. The inhibition at 1 µM with AKT phosphorylation turned out to be 87.3%. Further, the IC50 at 15 min in series [1] was no less than 10 µM.
On to `COc1nc(Cl)cc(N2CCc3nc(NC(=O)Nc4cnccc4C(=O)NC(C)C)sc3C2)n1` [Compound I-91], for which, at PI3Kγ, the inhibition at 10 µM was no less than 95%. The inhibition at 1 µM in the series on AKT phosphorylation was determined as 94.7%. The molecule also showed an IC50 at 15 min in series [1] of no less than 10 µM. In addition, at PI3Kβ (setting [2]), the inhibitory constant (Ki) was no more than 3 µM.
Take `COc1cncc(-c2ccc3nc(NC(=O)Nc4ccccc4OCCC(C)C)cn3n2)c1` [Compound I-114]: in the series with AKT phosphorylation, the inhibition at 1 µM was found to be 64.9%. The molecule further came in with an IC50 at 15 min in series [1] greater than 20 µM. In addition, the Ki is no more than 3 µM at PI3Kβ (setting [2]) and 0.66 µM at PI3Kβ (read-out: PI3Kβ Ki value).
Consider `Cc1nc(NC(=O)Nc2ccccc2C(=O)NC(C)C)sc1-c1ccc(S(C)(=O)=O)c(F)c1` [Compound I-127], for which the inhibition at 10 µM on PI3Kγ was no less than 95%. The inhibition at 1 µM in the series on AKT phosphorylation was found to be 77.7%. Also, the values for the Ki on PI3Kβ (setting [2]) and at PI3Kβ (read-out: PI3Kβ Ki value) were no more than 3 µM and 0.34 µM, respectively.
In the case of `CC(C)NC(=O)c1ccccc1NC(=O)Nc1nc2c(s1)CN(c1cncc(C(F)(F)F)c1)CC2` [Compound I-131], on PI3Kγ, the inhibition at 10 µM amounted to 78%. The inhibition at 1 µM in the series with AKT phosphorylation was determined as 84%. This molecule yielded an IC50 at 15 min in series [1] of no less than 10 µM. The Ki at PI3Kβ (setting [2]) was greater than 3 µM.
As to `COc1cc(N2CCc3nc(NC(=O)Nc4ccccc4C(=O)NC(C)C(O)C(F)(F)F)sc3C2)nc(OC)n1` (stereo not drawn) [Compound I-139], at PI3Kγ, the “PI3Kg Inhibition Ratio % (10 μM)” value is reported as “≧95%”. Besides, the “AKT phosphorylation inhibition ratio” value in the series on AKT phosphorylation is listed as no less than 95%.
Take `COc1cc(N2CCc3nc(NC(=O)Nc4cn(C)nc4C(=O)NCC(F)(F)F)sc3C2)nc(OC)n1` [Compound I-148]: the inhibition at 10 µM at PI3Kγ is 90%. Moreover, in the series on AKT phosphorylation, the inhibition at 1 µM is no less than 95%. Besides, on PI3Kβ (setting [2]), the inhibition constant (Ki) is no more than 0.3 µM.
Regarding `Cc1nc(NC(=O)Nc2ccccc2C(=O)NC(C)C)sc1-c1csc(S(=O)(=O)N(C)CCN(C)C)c1` [Compound I-191], the inhibition at 10 µM on PI3Kγ worked out at 87%. Further, the inhibition at 1 µM in the series with AKT phosphorylation was found to be 93%. The molecule also returned an IC50 at 15 min in series [1] of no less than 10 µM.
Consider `COc1cc(N2CCc3nc(NC(=O)Nc4ccccc4C(=O)NN4CCN(C)CC4)sc3C2)nc(OC)n1` [Compound I-195], for which the inhibition at 10 µM on PI3Kγ was no less than 95%. In addition, in the series on AKT phosphorylation, the inhibition at 1 µM was determined as 82%.
Turning to `COc1nc(Cl)cc(N2CCc3nc(NC(=O)Nc4ccccc4C(=O)NC4CCCOC4)sc3C2)n1` (stereo not drawn) [Compound I-197], at PI3Kγ, the inhibition at 10 µM is no less than 95%. In addition, the inhibition at 1 µM with AKT phosphorylation was found to be 90%. For the same molecule, on PI3Kβ (setting [2]), the Ki is greater than 3 µM.
On to `CC(C)NC(=O)c1ccccc1NC(=O)Nc1nc2c(s1)CN(c1cccc(S(C)(=O)=O)c1)CC2` [Compound I-198], for which the inhibition at 10 µM on PI3Kγ is no less than 95%. In addition, in the series on AKT phosphorylation, the inhibition at 1 µM was determined as 94%. The IC50 at 15 min in series [1] was greater than 20 µM.
In the case of `COc1cc(N2CCc3nc(NC(=O)Nc4ccccc4C(=O)NC4CCOCC4)sc3C2)nc(OC)n1` [Compound I-203], on PI3Kγ, the inhibition at 10 µM is 91%. Besides, the inhibition at 1 µM with AKT phosphorylation was no less than 95%. In series [1], this molecule gave an IC50 at 15 min greater than 20 µM.
For `C[C@@H](CO)NC(=O)c1ccccc1NC(=O)Nc1nc2c(s1)CN(c1cncc(S(C)(=O)=O)c1)CC2` [Compound I-211], in that order: 87%, 85% and no less than 10 µM.
With `COc1cncc(-c2cc(NC(=O)Nc3ccccc3C(=O)NC(C)C)nn2C)c1` [Compound I-226], the inhibition at 10 µM on PI3Kγ was determined as 93%. Besides, the IC50 at 15 min in series [1] is no less than 10 µM. Also, the Ki on PI3Kβ (setting [2]) is greater than 3 µM.
